The subject of data set [1] is rabbit eye. Conditions: in vivo.
Protocol: OCT macula were captured at baseline, at week 1, and at 4 week intervals thereafter.
P values were calculated using a 2 tailed t-test.
Data set [2] has as its system rabbit eye. The experiment in a line: IOP after suprachoroidal liposomal latanoprost or daily topical latanoprost (Example 2). Conditions: daily eye drops 0.005% for two weeks. The class given is in vivo, Dutch-Belt rabbits. On the procedure:
A suprachoroidal injector (SupraMedical, Israel) was used that has a 30-gauge needle attached to an extension tubing connected to a 1 ml syringe. The length of the injector is adjusted by inputting readings of scleral thickness combined with a correction factor, supplied on a calibration table from the manufacturer. The scleral thickness was determined by ultrasound bio-microscopy (UBM). After the depth dial was set to the correct position, the plunger of the injector and the syringe were depressed simultaneously. Injections were delivered over 5-10 seconds. After the drug formulation or control was delivered, the plunger was released, and the injector gradually removed.
Rabbits receiving suprachoroidal injection had their scleral thickness measured with Optovue RTVue OCT. The thickness of the sclera was measured at 3 mm posterior to the corneoscleral junction. An average of three readings were taken to determine the mean scleral thickness. The length of the needle on the injector was subsequently calibrated by adding 300 μm to the mean scleral thickness. […]
Four Dutch-Belt rabbits (n=8 eyes) were used in this study. Baseline IOP was measured using a calibrated Tonopen XL® (Reichert Ophthalmic Instruments, Depew, NY). […] Animals were handled consistently to ensure stable IOP readings. […]
Three readings were taken for each eye and an average obtained. […]

Take `CC(C)OC(=O)CCC/C=C\C[C@@H]1[C@@H](CC[C@@H](O)CCc2ccccc2)[C@H](O)C[C@@H]1O` [Topical latanoprost, latanoprost]: in the data set on rabbit eye [1], the Mean retinal thickness is 131.44 μm. Further, in the data set with rabbit eye [2], the “maximum decrease in IOP” value was 38%.

These data come from patent publication US20250387331A1, “PROSTAGLANDIN ANALOGS AND METHODS FOR SUSTAINED GLAUCOMA MANAGEMENT” (Peregrine Ophthalmic PTE LTD, priority 2024, published 2025).
